Results as given in paper PMC6750642, “Direct Measurement of Amorphous Solubility” (Analytical Chemistry, 2019).
Where two headings read alike, the source gives them in different places. Marks after values point to notes of the source that are not given here.

Tests used:
[1] = Image-based single particle analysis (SPA) solubility measurement of amorphous and crystalline samples; assay type: physicochemical; conditions: for DS (degree of supersaturation, amorphous vs crystalline solubility), SPA method: Milli-Q ultrapure water, type 1
Method: The constant flow continuously displaces drug molecules from the surface of the dissolving particle. […] (Figure 1). The solubilities of all five crystalline and amorphous samples were measured in triplicate in Milli-Q water. […] The obtained solubility values, therefore, were the average of three independent measurements, where at least ten particles per single measurement were analyzed. Additionally, amorphous IND was also measured in HCl buffer pH 2.0 in the presence of 0.1% (w/v) polyvinylpyrolidone (PVP). The additional measurement using PVP was performed in order to assess the need for a crystallization inhibitor in the SPA experiments. The solubilities of the amorphous and crystalline samples were measured in Milli-Q water and USP buffers as soon as the solvent came in contact with particles.

[2] = Theoretical estimation of DS by the Hoffman method from DSC and DVS data; assay type: physicochemical
Method: Samples of 5–10 mg were tightly packed into standard aluminum crucibles (40 μL) with pierced lids. The samples were equilibrated at 25 °C for 3 min and then linearly heated with a heating rate of 10 °C/min to 20 °C above their respective melting points. Measurements of both amorphous and crystalline samples were recorded in triplicate, and thermal events were analyzed using the STARe software (Mettler-Toledo, Greifensee, Switzerland). Temperatures and melting enthalpies were used to estimate the free energy difference between the amorphous and crystalline forms.
The water sorption isotherms of the five amorphous drug samples were determined using the method previously described by Murdande et al.[10] A VTI-SA+ Vapor Sorption Analyzer (TA Instruments, New Castle, DE, USA) was used to measure the moisture sorption profiles of the amorphous samples. Approximately 10 mg of amorphous sample was placed into a glass holder. To reduce the possibility of sample crystallization during the measurement, no drying step was used. The DVS measurements were performed at 25 °C from 0 to 95% relative humidity (in 10% steps up to 90%). The equilibrium criterion was 0.001% weight change in 5 min with a maximum step time of 150 min. The instrument is calibrated once a month.
According to Hoffman, the difference in Gibbs free energy (ΔG) between the crystalline and the amorphous form can be estimated using eq 4.[15]Hm, Tm, and T are the melting enthalpy of the crystalline form, the melting temperature of the crystalline form, and the experimental temperature measured in Kelvin, respectively. Using the ΔG estimation, the maximum DS due to amorphization was predicted according to Hancock and Parks[9] and corrected for the impact of water on the amorphous solute as proposed by Murdande et al. through eq 5.[10]R and exp(−I(a2)) are the gas constant and a correction factor obtained from DVS measurements, as shown by Murdande et al.[10]

[3] = cited from earlier work
[4] = cited from earlier work; remark: listed apart in the source
[5] = Dynamic water sorption (DVS) of amorphous samples; assay type: physicochemical; conditions: above RH 80%, 25 °C

SMILES	DS (degree of supersaturation, amorphous vs crystalline solubility), SPA method [1]	effect of PVP in the dissolution medium on the solubility of the amorphous form, SPA method ([1]; USP HCl buffer pH 2.0 with vs without PVP 0.1% (w/v))	DS, theoretical estimation (Hoffman method with correction for the effect of water on the amorphous solute) [2]	DS, theoretical estimation based solely on ΔG, without the correction for the adsorbed water [2]	sample mass loss in DVS experiment (crystallization, water expelled) [5] [%]	DS, literature, dissolution in water ([3]; deionized water)	DS, literature, theoretical estimation [4]	DS, literature, theoretical estimation ([4]; approach by Almeida et al.)	DS, literature, dissolution in water ([3]; distilled water)	DS range reported in the literature ([4]; temperature range of 34–75 °C)
COc1ccc2c(c1)c(CC(=O)O)c(C)n2C(=O)c1ccc(Cl)cc1 [IND, indomethacin]	20.4	did not affect	18.7			4.9 ^d^, ^i	20.8 ^i			
COC1=CC(=O)C[C@@H](C)[C@]12Oc1c(Cl)c(OC)cc(OC)c1C2=O [GRI, griseofulvin]	29.8		34.6			1.4 ^d^, ^i	29.1	30.9		
OCCN(CCO)c1nc(N2CCCCC2)c2nc(N(CCO)CCO)nc(N3CCCCC3)c2n1 [DIP, Dipyridamole]	15.3		6.6	15.2	0.39		10 ^k			

More lines, main results first:

DS (degree of supersaturation, amorphous vs crystalline solubility), SPA method [1]	effect of PVP in the dissolution medium on the solubility of the amorphous form, SPA method ([1]; USP HCl buffer pH 2.0 with vs without PVP 0.1% (w/v))	DS, theoretical estimation (Hoffman method with correction for the effect of water on the amorphous solute) [2]	DS, theoretical estimation based solely on ΔG, without the correction for the adsorbed water [2]	sample mass loss in DVS experiment (crystallization, water expelled) [5] [%]	SMILES	DS, literature, dissolution in water ([3]; deionized water)	DS, literature, theoretical estimation [4]	DS, literature, theoretical estimation ([4]; approach by Almeida et al.)	DS, literature, dissolution in water ([3]; distilled water)	DS range reported in the literature ([4]; temperature range of 34–75 °C)
		23.9			C#C[C@]1(O)CC[C@H]2[C@@H]3CCC4=Cc5oncc5C[C@]4(C)[C@H]3CC[C@@]21C [DAN, Danazol]	3.0 ^d^, ^i	26.5 ^i			
18.9		21.7			Cc1ccc(-c2cc(C(F)(F)F)nn2-c2ccc(S(N)(=O)=O)cc2)cc1 [CEL, Celecoxib]				3.1 ^c^, ^h	7–21
